Assay results published in the supplement of paper PMC5752671.

Assays:
NB4 = assay: IC50 (cell viability) (log10 M); conditions: 4 days
Method in brief: (§1)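 The IC50 entries come from fitted dose-response curves. Each value is the concentration in log10 M where a fitted four-parameter curve reaches 50% viability, and the highest tested concentration is entered when that level is not reached. Fourteen leukemia cell lines on extracellular-matrix-coated 384-well plates received drugs in duplicate at eight concentrations within 10^–12–10^–4 M, and viability was read with CellTiter-Glo after 4 days.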

MOLM/13 = assay: IC50 (cell viability) (log10 M); conditions: 4 days
Method in brief: as §1

MOLM/16 = assay: IC50 (cell viability) (log10 M); conditions: 4 days
Method in brief: as §1

SKM1 = assay: IC50 (cell viability) (log10 M); conditions: 4 days
Method in brief: as §1

MV4.11 = assay: IC50 (cell viability) (log10 M); conditions: 4 days
Method in brief: as §1

KG1 = assay: IC50 (cell viability) (log10 M); conditions: 4 days
Method in brief: as §1

U937 = assay: IC50 (cell viability) (log10 M); conditions: 4 days
Method in brief: as §1

KASUMI1 = assay: IC50 (cell viability) (log10 M); conditions: 4 days
Method in brief: as §1

OCI-AML2 = assay: IC50 (cell viability) (log10 M); conditions: 4 days
Method in brief: as §1

EOL-1 = assay: IC50 (cell viability) (log10 M); conditions: 4 days
Method in brief: as §1

OCI-AML3 = assay: IC50 (cell viability) (log10 M); conditions: 4 days
Method in brief: as §1

HL60 = assay: IC50 (cell viability) (log10 M); conditions: 4 days
Method in brief: as §1

PL-21 = assay: IC50 (cell viability) (log10 M); conditions: 4 days
Method in brief: as §1

THP-1 = assay: IC50 (cell viability) (log10 M); conditions: 4 days
Method in brief: as §1

AML190 = primary AML patient cells; assay: area under dose-response curve (cell viability), refractory AML patient cells (AUC (arbitrary, % viability x log concentration)); higher = less sensitive (more viable); conditions: 4 days; sample type: primary refractory AML patient cells
Method in brief: (§2)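 Values are the area under the fitted dose-response curve. Primary cells from 12 refractory AML patients on a clinical trial were treated on extracellular-matrix-coated 384-well plates with drugs at eight concentrations within 10^–12–10^–4 M, and viability was read with CellTiter-Glo after 4 days.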

AML223 = primary AML patient cells; assay: as above; conditions: 4 days; sample type: primary refractory AML patient cells
Method in brief: as §2

AML.074 = primary AML patient cells; assay: area under dose-response curve (cell viability), primary AML patient cells (AUC (arbitrary, % viability x log concentration; ComBat batch-corrected)); higher = less sensitive (more viable); conditions: 4 days; sample type: primary AML patient cells
Method in brief: (§3)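 Before testing, primary AML cells were DNase-thawed, cultured 48 h in IMDM with horse serum, fetal calf serum and low stem cell factor, and enriched for blasts. On extracellular-matrix-coated 384-well plates at 5000 cells/well, they received drugs the next day at eight concentrations within 10^–12–10^–4 M, in duplicate, and CellTiter-Glo viability was recorded after 4 days. The endpoint was area under the fitted four-parameter curve, corrected for batch using ComBat.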

AML.061 = primary AML patient cells; assay: as above; conditions: 4 days; sample type: primary AML patient cells
Method in brief: as §3

AML010 = primary AML patient cells; assay: as above; conditions: 4 days; sample type: primary AML patient cells
Method in brief: as §3

AML.077 = primary AML patient cells; assay: as above; conditions: 4 days; sample type: primary AML patient cells
Method in brief: as §3

| SMILES | IC50 (log10 M) (NB4) | IC50 (log10 M) (MOLM/13) | IC50 (log10 M) (MOLM/16) | IC50 (log10 M) (SKM1) | IC50 (log10 M) (MV4.11) | IC50 (log10 M) (KG1) | IC50 (log10 M) (U937) | IC50 (log10 M) (KASUMI1) | IC50 (log10 M) (OCI-AML2) | IC50 (log10 M) (EOL-1) | IC50 (log10 M) (OCI-AML3) | IC50 (log10 M) (HL60) | IC50 (log10 M) (PL-21) | IC50 (log10 M) (THP-1) | area under dose-response curve (AML190) | area under dose-response curve (AML223) | area under dose-response curve (AML.074) | area under dose-response curve (AML.061) | area under dose-response curve (AML010) | area under dose-response curve (AML.077) |
| --- | --- | --- | --- | --- | --- | --- | --- | --- | --- | --- | --- | --- | --- | --- | --- | --- | --- | --- | --- | --- |
| N[C@@H](Cc1ccc(N(CCCl)CCCl)cc1)C(=O)O [Melphalan] | -6.08 | -6.22 | -5.53 | -5.41 | -6.72 | -5.44 | -5.99 | -5.38 | -6.57 | -6.64 | -5.91 | -5.55 | -5.39 | -5.55 | 562 | 612 | 522 | 670 | 754 | 653 |
| S=c1[nH]cnc2nc[nH]c12 [Mercaptopurine] | > -5 | -5.71 | > -5 | > -5 | > -5 | > -5 | > -5 | > -5 | -5.74 | > -5 | > -5 | > -5 | > -5 | > -5 | 628 | 347 | 740 | 822 | 794 | 687 |
| CN(Cc1cnc2nc(N)nc(N)c2n1)c1ccc(C(=O)N[C@@H](CCC(=O)O)C(=O)O)cc1 [Methotrexate] | < -8.48 | < -8.48 | > -5 | > -5 | < -8.48 | > -5 | > -5 | > -5 | < -8.48 | > -5 | < -8.48 | > -5 | > -5 | -7.82 | 629 | 592 | 777 | 804 | 800 | 685 |
| CCNC(=O)c1noc(-c2cc(C(C)C)c(O)cc2O)c1-c1ccc(CN2CCOCC2)cc1 [NVP-AUY-922] | -8.86 | -7.27 | -9.61 | -8.91 | -9.64 | -8.55 | -9.02 | -9.19 | -9.28 | -9.55 | -8.71 | -8.8 | -8.84 | -8.49 | 340 | 396 | ≤ 260 | 307 | ≥ 483 | 299 |
| Cc1c(C(=O)Nc2ccc(N3C[C@@H](C)O[C@@H](C)C3)nc2)cccc1-c1ccc(OC(F)(F)F)cc1 [NVP-LDE-225] | > -5 | > -5 | > -5 | > -5 | > -5 | > -5 | > -5 | > -5 | > -5 | -5.16 | > -5 | > -5 | > -5 | > -5 | 698 | 723 | 682 | 739 | 761 | 696 |
| Cc1cn(-c2cc(NC(=O)c3ccc(C)c(Nc4nccc(-c5cccnc5)n4)c3)cc(C(F)(F)F)c2)cn1 [Nilotinib] | > -5 | -5.25 | -5.38 | -5.19 | -5.28 | > -5 | -5.57 | -5.59 | -5.44 | -7.48 | -5.4 | > -5 | -5.26 | -5.09 | 441 | 650 | 657 | 769 | 747 | 685 |
| C[C@]1(O)C[C@@H](c2nc(-c3ccc4ccc(-c5ccccc5)nc4c3)c3c(N)nccn32)C1 [OSI-906] | -5.56 | > -5 | -5.44 | -5.56 | > -5 | > -5 | > -5 | -5.67 | -5.38 | -5.74 | > -5 | -6.31 | -6.24 | > -5 | 604 | 567 | 696 | ≥ 745 | 696 | 651 |
| O=C(c1cc(Cc2n[nH]c(=O)c3ccccc23)ccc1F)N1CCN(C(=O)C2CC2)CC1 [Olaparib] | -5.1 | -5.32 | -5.12 | > -5 | -5.65 | > -5 | > -5 | > -5 | -5.5 | -5.64 | > -5 | > -5 | > -5 | -5.34 | 660 | 647 | 573 | 746 | 699 | 635 |
